Six molecules from patent US8912224B2, “Substituted 2-(chroman-6-yloxy)-thiazoles and their use as pharmaceuticals” (Sanofi, priority 2011, dated 2014) can be followed below.

Broadly, the IC50 is the midpoint of a concentration-inhibition curve.

The assay has as its target human NCX1 (Homo sapiens (Human), UniProt P32418). Kind of assay: Inhibition of Ca2+ efflux out of cells (NCX1 forward mode), FLIPR assay. Format: cell-based. The note with it: CHO cells stably expressing human NCX1, Ionomycin 2 μM, read-out: NCX1fw IC50. From the text:
The sodium/calcium exchanger NCX1 can transport calcium ions and sodium ions through the cell membrane. The transport is an exchange of Ca^2+and Na^+in two directions depending on membrane potential and ion gradients. At the first direction, named “forward mode” or “calcium export mode”, Ca^2+is transported out of the cell and Na^+ is transported into the cell. At the other direction, named “reverse mode” or “calcium import mode”, the transport directions are vice versa. The effect of the compounds of the invention on NCX1 was determined in CHO cells stably expressing human NCX1 (gene symbol SLC8A1; cf. WO 2009/115238). The assay is based on the monitoring of intracellular Ca^2+concentrations using a calcium-sensitive fluorescence dye which is detected by means of a FLIPR device (Fluorimetric Imaging Plate Reader, Molecular Devices).
Assay Technology—Forward Mode
The assay is based on the monitoring of intracellular Ca^2+concentrations using the PBX Calcium Assay Kit from BD (Becton, Dickinson and Company) with calcium indicator dye 51-9000177BKa (BD, 640177), CHO cells expressing NCX1 were loaded with the dye, and after a preincubation period with the test compound, lonomycin (Calbiochem, 407950) was added. Ionomycin is an ionophor for Ca^2+ions mediating an increase of intracellular Ca^2+ions. Consequently, intracellular Ca^2+ions are exchanged against extracellular Na^+ions (Ca^2+efflux, forward mode). The decrease of intracellular Ca^2+ions was detected by measuring the fluorescence of the calcium indicator dye at a wavelength of 520 nm by a FLIPR device.
Briefly, similarly as for the reverse mode, for the forward mode transport assay 18000 cells per well were seeded into a 96 well microplate (Corning COSTAR 3904) and incubated overnight in culture medium (cf. above). A total volume of 100 μl medium per well was used. For the preparation of the FLIPR assay, the culture medium was removed from the plates and 100 μl of assay buffer (133.8 mM NaCl (Sigma, S5886); 4.7 mM KCl (Sigma, P3911); 1.25 mM MgCl2 (Merck, 1.05833.0250); 3.5 mM CaCl2 (Merck, 1.02083.0250); 5 mM glucose (Sigma. G7021); 10 mM Hepes (Sigma, H4034); pH 7.4)) were added to each well in a washing step. Assay buffer was removed, and 100 μl of a solution of the test compound in assay buffer in different concentrations were added into the wells. Further, 100 μl of dye solution (0.09% (v/v) calcium indicator dye, 9.1% (v/v) signal enhancer (from PBX Calcium Assay Kit); in assay buffer) were added into each well. The plates were incubated in the dark at room temperature for 60 min. Meanwhile a 10 μM solution of lonomycin in assay buffer (additionally containing 0.05% fetal calf serum (cf. above); 4° C.) was prepared and stored in the wells of a 96 well microplate (96 well microplate, polypropylene, U-shape (Greiner Bio-One, 650201)). The fluorescence monitoring was performed at 60 measuring points with measurement intervals of 2 sec. After the fifth measuring point, 50 μl of the lonomycin solution were added to each well of the assay plate to give a final lonomycin concentration of 2 μM. For the determination of the IC50 values the minimal fluorescence value was subtracted from the maximal fluorescence value for the fifteenth to fifty-fifth measuring points. The calculation of the IC50 values via the percentage inhibitions of Ca^2+efflux out of cells (forward mode) effected by the test compound was performed in Biost@t Speed 2.0. “NCX1fw IC50” in Table 2 means the IC50 value for inhibition of NCX1 in forward mode (in μM (micromol/liter)).

human NCX1, sequence (P32418 whole entry, looked up): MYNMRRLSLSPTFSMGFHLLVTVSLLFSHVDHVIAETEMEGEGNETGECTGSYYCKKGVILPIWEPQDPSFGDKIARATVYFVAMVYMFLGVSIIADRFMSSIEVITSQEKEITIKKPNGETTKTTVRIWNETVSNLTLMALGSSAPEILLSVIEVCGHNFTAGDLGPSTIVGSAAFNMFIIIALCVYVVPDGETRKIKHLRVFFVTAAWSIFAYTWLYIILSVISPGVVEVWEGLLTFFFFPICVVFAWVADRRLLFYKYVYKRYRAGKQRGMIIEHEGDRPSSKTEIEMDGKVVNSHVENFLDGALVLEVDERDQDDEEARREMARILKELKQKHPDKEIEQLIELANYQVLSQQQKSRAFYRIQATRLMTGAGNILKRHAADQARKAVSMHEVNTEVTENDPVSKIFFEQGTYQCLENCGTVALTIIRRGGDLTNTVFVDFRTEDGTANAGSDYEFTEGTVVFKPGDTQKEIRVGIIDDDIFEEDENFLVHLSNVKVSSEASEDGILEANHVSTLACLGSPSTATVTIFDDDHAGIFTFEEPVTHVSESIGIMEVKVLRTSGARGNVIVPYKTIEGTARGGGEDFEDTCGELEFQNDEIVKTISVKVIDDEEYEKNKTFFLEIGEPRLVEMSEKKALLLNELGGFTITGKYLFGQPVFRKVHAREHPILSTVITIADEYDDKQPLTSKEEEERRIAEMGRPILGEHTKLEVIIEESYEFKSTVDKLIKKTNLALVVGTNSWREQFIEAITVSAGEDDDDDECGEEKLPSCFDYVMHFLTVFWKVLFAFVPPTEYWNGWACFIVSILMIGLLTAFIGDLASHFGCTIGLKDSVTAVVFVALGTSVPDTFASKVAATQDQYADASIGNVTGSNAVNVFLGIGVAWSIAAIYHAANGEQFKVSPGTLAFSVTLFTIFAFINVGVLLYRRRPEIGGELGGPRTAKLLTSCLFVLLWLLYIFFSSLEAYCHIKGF

On to `CCCNC(=O)c1cnc(Oc2ccc3c(c2)CCC(c2ccccc2C)O3)s1` (stereo not drawn) [Example 330, 2-(2-o-Tolyl-chroman-6-yloxy)-thiazole-5-carboxylic acid propylamide], for which the IC50 came to 350 nM.

Turning to `Cc1ccccc1C1CCc2cc(Oc3nc(C)c(C(=O)NCc4ccno4)s3)ccc2O1` (stereo not drawn) [Example 334, 4-Methyl-2-(2-o-tolyl-chroman-6-yloxy)-thiazole-5-carboxylic acid (isoxazol-5-ylmethyl)-amide], the IC50 came out at 2100 nM.

On to `Cc1ccccc1[C@@H]1CCc2cc(Oc3ncc(C(=O)NCCO)s3)ccc2O1` [Example 326, 2-((S)-2-o-Tolyl-chroman-6-yloxy)-thiazole-5-carboxylic acid (2-hydroxy-ethyl)-amide], for which the IC50 worked out at 200 nM.

With `Cc1ccccc1C1CCc2cc(Oc3ncc(CNC(=O)CN4CCCC4=O)s3)ccc2O1` (stereo not drawn) [Example 327, 2-(2-Oxo-pyrrolidin-1-yl)-N-[2-(2-o-tolyl-chroman-6-yloxy)-thiazol-5-ylmethyl]-acetamide], the IC50 was 3000 nM.

Consider `Cc1ccc(F)cc1C1CCc2cc(Oc3ncc(C(=O)NCCO)s3)ccc2O1` (stereo not drawn) [Example 342, 2-[2-(5-Fluoro-2-methyl-phenyl)-chroman-6-yloxy]-thiazole-5-carboxylic acid (2-hydroxy-ethyl)-amide], for which the IC50 is 700 nM.

Regarding `CCCNC(=O)c1cnc(Oc2ccc3c(c2)CCC(c2cc(F)ccc2C)O3)s1` (stereo not drawn) [Example 343, 2-[2-(5-Fluoro-2-methyl-phenyl)-chroman-6-yloxy]-thiazole-5-carboxylic acid propylamide], the IC50 turned out to be 800 nM.
